In brackets after ≈: the same amount, converted by molar mass.
Tested on: Mycobacterium tuberculosis
Experiment: Antimycobacterial activity against Mycobacterium tuberculosis InhA S94A assessed as reduction in bacterial growth
Type: functional

SMILES	MIC [µg/mL]
CC/C(C)=C1\OC(=O)[C@H](C)[C@H](O)[C@H](Cc2cccnc2)NC(=O)[C@@H](NC(=O)c2ncccc2O)[C@@H](C)OC1=O [PYRIDOMYCIN]	0.3 (≈ 0.555 µM)
Oc1cc2ccc1Oc1ccc(cc1)CCc1ccc(c(O)c1)Oc1ccc(cc1)CC2	40 (≈ 94.2 µM)
